Data reported in PubChem BioAssay AID743165 (Broad Institute, 2013).

Test system: Mycobacterium tuberculosis replicating, CFU imaging
Test: IC90 against replicating M. tuberculosis, dose response, CFU by imaging, dry powder, 7108-03 (AID 743165)

## Cn1c(NC(=O)c2ccccc2)nc2ccccc21
  IC90: < 48 µM

## CCOC(=O)NC(=O)c1ccsc1NC(=O)c1nc2ccccc2s1
  IC90: < 8 µM
